# Data reported in article PMC9820167, “Design and Synthesis of Conformationally Flexible Scaffold as Bitopic Ligands for Potent D3-Selective Antagonists” (International Journal of Molecular Sciences, 2022).
# Key:
# human D2 receptors = target: T1, human D2 receptors (Homo sapiens, UniProt P14416); test: Radioligand binding assay with [125I]IABN, D2 receptor; conditions: [125I]IABN, D2 receptors expressed in HEK cells; mean ± SEM, three experiments; HCl salts; read-out: Ki ± SEM (nM) D2
# T1 construct: expressed in transfected cells; host or cells: HEK293
# T1 sequence (P14416 whole entry): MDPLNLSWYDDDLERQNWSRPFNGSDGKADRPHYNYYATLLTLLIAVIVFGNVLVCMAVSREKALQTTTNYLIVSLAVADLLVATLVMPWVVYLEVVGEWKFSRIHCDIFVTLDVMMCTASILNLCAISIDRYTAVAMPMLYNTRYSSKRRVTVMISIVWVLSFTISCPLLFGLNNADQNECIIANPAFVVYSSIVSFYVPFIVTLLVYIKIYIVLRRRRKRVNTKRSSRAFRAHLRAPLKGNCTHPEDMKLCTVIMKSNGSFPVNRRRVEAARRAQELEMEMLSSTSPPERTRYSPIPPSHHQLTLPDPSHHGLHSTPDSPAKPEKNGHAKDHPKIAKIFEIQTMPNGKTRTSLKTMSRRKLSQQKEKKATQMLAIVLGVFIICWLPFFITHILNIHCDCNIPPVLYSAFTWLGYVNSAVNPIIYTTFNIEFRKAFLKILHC
# Description: Two different assays were used to evaluate the properties of the analogs described above. The receptor binding affinity was measured by radioligand binding assays using [^125I]IABN with D2 or D3 receptors highly expressed HEK293 cells. The functional activity of the analogs was determined using a β-arrestin recruitment assay. […] The results of the antagonist mode assay are reported as IC50 values.
# Ki values for D2 and D3 receptors were measured using [^125I]IABN in human D2 and D3 receptors expressed in HEK cells, respectively. A filtration binding assay was used to characterize membrane-associated receptor binding properties. The details for the procedures were described in the literature.
# Serotonin 5-HT1B = Serotonin 5-HT1B (Homo sapiens, UniProt P28222); test: PDSP binding screen; conditions: for inhibition at 10 µM: read-out: Ki (nM) or % inhibition at 10 µM: 5-HT1B
# Serotonin 5-HT1B, sequence (P28222 whole entry): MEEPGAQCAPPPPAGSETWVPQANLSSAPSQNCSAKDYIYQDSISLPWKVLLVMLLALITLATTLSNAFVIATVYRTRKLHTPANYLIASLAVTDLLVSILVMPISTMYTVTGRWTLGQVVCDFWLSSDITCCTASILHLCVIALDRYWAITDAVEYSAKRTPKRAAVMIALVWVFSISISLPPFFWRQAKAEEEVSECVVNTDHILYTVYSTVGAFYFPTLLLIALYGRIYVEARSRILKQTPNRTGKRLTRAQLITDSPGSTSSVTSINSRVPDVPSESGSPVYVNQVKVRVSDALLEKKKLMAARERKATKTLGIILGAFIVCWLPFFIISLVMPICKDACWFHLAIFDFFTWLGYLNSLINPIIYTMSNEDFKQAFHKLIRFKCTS
# Serotonin 5-HT2B = Serotonin 5-HT2B (Homo sapiens, UniProt P41595); test: PDSP binding screen
# Serotonin 5-HT2B, sequence (P41595 whole entry): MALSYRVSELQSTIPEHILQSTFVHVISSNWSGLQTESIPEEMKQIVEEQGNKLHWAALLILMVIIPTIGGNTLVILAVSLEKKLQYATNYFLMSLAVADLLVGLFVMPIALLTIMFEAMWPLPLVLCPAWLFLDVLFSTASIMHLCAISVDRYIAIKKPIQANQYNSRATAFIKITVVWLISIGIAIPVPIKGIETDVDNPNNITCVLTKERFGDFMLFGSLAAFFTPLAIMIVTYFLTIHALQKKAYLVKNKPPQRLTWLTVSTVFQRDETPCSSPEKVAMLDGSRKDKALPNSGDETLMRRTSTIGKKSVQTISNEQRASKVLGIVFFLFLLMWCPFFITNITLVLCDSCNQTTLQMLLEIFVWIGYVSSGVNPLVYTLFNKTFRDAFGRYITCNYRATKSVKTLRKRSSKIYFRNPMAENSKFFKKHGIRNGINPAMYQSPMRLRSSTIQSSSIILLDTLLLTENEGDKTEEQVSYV
# Serotonin 5-HT3 = target: T2, Serotonin 5-HT3 (Homo sapiens, UniProt P46098); test: PDSP binding screen
# T2 sequence (P46098 24-478): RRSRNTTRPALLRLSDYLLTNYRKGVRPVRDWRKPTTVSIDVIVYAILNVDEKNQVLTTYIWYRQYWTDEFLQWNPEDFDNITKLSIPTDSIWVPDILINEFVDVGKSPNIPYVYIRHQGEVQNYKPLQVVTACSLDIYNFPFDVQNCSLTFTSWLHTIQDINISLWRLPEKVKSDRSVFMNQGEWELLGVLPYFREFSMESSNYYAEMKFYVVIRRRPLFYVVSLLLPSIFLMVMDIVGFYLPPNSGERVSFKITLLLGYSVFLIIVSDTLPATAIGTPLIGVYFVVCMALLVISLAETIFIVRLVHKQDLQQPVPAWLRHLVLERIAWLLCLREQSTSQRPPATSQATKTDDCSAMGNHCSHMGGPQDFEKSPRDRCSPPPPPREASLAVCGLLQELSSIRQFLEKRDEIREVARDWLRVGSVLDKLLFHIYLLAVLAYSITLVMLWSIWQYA
# Serotonin 5-HT7A = Serotonin 5-HT7A (Homo sapiens, UniProt P34969); test: PDSP binding screen; conditions: for inhibition at 10 µM: read-out: Ki (nM) or % inhibition at 10 µM: 5-HT7A
# Serotonin 5-HT7A, sequence (P34969 1-445 isoform P34969-2): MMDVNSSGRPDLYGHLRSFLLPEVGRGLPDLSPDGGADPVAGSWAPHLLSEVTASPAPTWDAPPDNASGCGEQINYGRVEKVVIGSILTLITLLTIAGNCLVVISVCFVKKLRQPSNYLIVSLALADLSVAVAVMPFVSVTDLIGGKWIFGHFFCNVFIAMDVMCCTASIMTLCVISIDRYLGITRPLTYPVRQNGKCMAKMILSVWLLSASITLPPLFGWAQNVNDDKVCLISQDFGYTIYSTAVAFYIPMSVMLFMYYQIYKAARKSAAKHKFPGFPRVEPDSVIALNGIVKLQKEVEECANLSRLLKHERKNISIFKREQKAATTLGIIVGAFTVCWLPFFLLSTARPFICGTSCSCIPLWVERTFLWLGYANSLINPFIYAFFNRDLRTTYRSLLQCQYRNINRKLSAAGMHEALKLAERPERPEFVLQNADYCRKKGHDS
# Adrenergic alpha1B = target: T3, Adrenergic alpha1B (Homo sapiens, UniProt P35368); test: PDSP binding screen; conditions: for inhibition at 10 µM: read-out: Ki (nM) or % inhibition at 10 µM: alpha1B
# T3 sequence (P35368 1-520): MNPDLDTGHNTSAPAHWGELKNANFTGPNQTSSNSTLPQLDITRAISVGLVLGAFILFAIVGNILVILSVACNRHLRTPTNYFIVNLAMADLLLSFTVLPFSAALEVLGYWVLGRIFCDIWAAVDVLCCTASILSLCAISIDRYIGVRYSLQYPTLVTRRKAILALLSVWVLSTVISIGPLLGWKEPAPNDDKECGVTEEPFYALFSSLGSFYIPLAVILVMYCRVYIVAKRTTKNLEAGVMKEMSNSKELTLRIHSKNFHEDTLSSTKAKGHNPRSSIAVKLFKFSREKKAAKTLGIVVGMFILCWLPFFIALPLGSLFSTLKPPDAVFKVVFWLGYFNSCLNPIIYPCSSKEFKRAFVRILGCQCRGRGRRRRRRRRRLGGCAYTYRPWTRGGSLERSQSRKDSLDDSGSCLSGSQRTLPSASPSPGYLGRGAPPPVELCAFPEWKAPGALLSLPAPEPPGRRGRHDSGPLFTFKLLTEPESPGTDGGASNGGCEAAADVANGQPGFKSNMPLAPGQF
# Adrenergic beta1 = Adrenergic beta1 (Homo sapiens, UniProt P08588); test: PDSP binding screen; conditions: for inhibition at 10 µM: read-out: Ki (nM) or % inhibition at 10 µM: beta1
# Adrenergic beta1, sequence (P08588 whole entry): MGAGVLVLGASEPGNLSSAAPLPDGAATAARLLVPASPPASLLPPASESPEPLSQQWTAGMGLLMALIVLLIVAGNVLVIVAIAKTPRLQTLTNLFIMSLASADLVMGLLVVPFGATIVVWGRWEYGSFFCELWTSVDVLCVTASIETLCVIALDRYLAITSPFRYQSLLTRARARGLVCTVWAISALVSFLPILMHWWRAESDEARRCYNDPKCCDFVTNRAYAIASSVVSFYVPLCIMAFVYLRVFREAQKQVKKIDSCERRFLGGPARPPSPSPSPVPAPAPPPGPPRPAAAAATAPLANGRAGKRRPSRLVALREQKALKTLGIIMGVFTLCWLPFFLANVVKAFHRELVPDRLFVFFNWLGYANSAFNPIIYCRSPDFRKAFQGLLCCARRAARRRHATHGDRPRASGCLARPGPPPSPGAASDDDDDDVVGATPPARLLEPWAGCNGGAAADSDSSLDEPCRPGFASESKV
# Adrenergic beta2 = Adrenergic beta2 (Homo sapiens, UniProt P07550); test: PDSP binding screen; conditions: for inhibition at 10 µM: read-out: Ki (nM) or % inhibition at 10 µM: beta2
# Adrenergic beta2, sequence (P07550 whole entry): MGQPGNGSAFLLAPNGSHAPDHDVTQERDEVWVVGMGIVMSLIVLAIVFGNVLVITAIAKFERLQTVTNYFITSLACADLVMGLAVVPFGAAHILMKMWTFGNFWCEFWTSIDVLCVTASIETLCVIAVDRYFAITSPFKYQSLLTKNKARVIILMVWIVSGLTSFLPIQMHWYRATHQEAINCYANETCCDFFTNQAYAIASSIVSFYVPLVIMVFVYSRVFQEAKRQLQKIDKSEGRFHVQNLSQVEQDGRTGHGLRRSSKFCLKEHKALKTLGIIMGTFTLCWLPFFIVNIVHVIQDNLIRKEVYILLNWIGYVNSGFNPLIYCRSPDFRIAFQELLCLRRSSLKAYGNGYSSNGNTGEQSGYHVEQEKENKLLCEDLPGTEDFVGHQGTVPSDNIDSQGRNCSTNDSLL
# Dopamine D3 = Dopamine D3 (Homo sapiens, UniProt P35462); test: PDSP binding screen
# Dopamine D3, sequence (P35462 whole entry): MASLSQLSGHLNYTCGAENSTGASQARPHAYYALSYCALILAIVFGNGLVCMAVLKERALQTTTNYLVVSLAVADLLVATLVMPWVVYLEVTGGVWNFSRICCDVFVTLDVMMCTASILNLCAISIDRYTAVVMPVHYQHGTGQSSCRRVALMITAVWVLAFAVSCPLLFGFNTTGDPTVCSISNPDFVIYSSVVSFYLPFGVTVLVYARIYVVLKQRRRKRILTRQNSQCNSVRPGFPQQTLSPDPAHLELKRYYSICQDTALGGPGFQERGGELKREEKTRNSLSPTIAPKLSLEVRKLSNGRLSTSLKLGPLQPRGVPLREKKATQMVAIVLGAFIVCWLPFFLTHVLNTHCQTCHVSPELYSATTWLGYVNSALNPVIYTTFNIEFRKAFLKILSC
# Histamine H3 = Histamine H3 (Homo sapiens, UniProt Q9Y5N1); test: PDSP binding screen; conditions: for inhibition at 10 µM: read-out: Ki (nM) or % inhibition at 10 µM: H3
# Histamine H3, sequence (Q9Y5N1 whole entry): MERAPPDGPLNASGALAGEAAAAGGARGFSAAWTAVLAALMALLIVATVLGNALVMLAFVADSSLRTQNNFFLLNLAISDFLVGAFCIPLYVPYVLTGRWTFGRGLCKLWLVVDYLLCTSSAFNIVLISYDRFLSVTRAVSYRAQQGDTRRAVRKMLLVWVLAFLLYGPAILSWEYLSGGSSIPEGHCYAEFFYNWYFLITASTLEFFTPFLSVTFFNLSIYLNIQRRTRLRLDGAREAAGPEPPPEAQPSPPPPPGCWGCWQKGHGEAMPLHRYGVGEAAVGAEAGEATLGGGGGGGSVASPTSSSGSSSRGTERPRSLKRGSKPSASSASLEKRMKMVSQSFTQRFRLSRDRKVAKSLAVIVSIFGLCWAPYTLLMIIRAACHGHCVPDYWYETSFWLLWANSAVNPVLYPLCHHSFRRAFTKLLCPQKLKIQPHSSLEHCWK
# Histamine H4 = Histamine H4 (Homo sapiens, UniProt Q9H3N8); test: PDSP binding screen; conditions: read-out: Ki (nM) or % inhibition at 10 µM: H4
# Histamine H4, sequence (Q9H3N8 whole entry): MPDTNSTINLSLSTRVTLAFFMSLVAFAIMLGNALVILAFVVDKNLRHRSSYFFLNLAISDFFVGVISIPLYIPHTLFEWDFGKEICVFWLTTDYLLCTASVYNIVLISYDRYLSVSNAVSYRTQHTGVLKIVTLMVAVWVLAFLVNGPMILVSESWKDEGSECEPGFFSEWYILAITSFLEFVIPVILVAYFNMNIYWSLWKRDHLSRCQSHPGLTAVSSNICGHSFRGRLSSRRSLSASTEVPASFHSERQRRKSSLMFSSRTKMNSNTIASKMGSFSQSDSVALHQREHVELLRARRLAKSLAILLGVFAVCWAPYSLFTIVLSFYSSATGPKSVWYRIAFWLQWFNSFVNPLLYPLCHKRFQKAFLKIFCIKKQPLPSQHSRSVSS
# Muscarinic M5 = target: T4, Muscarinic M5 (Homo sapiens, UniProt P08912); test: PDSP binding screen; conditions: for inhibition at 10 µM: read-out: Ki (nM) or % inhibition at 10 µM: M5
# T4 sequence (P08912 1-532): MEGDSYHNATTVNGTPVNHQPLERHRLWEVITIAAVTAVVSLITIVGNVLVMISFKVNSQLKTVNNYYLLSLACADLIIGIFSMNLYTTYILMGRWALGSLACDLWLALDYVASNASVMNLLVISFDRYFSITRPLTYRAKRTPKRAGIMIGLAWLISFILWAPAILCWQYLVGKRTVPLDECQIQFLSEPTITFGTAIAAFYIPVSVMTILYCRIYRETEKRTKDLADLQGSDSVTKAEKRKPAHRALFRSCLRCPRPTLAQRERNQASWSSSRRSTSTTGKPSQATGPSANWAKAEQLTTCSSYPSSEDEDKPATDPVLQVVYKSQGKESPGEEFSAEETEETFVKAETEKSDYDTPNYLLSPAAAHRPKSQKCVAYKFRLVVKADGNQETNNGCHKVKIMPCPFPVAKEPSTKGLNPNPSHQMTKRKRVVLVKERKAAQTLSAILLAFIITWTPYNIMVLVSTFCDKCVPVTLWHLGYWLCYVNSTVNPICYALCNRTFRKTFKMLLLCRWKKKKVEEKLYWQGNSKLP
# BZP Rat Brain Site = test: PDSP binding screen; conditions: HCl salts
# [1] = target: Benzodiazepine receptor (PBR) (Rattus norvegicus, UniProt P16257); test: PDSP binding screen; conditions: for Ki (nM) or % inhibition at 10 µM: Benzodiazepine receptor (PBR): PDSP, HCl salts
SMILES,Ki (human D2 receptors) [nM],inhibition at 10 µM (Serotonin 5-HT1B) [%],Ki (Serotonin 5-HT2B) [nM],Ki (Serotonin 5-HT3) [nM],inhibition at 10 µM (Serotonin 5-HT7A) [%],Ki (Adrenergic alpha1B) [µM],inhibition at 10 µM (Adrenergic beta1) [%],inhibition at 10 µM (Adrenergic beta2) [%],Ki (Dopamine D3) [nM],Ki (Histamine H3) [µM],inhibition at 10 µM (Histamine H4) [%],Ki (nM) or % inhibition at 10 µM: BZP Rat Brain Site (BZP Rat Brain Site),Ki [1] [nM],Ki (Adrenergic beta2) [nM],inhibition at 10 µM (Muscarinic M5) [%],Ki (nM) or % inhibition at 10 µM: Benzodiazepine receptor (PBR) [1],inhibition at 10 µM (Adrenergic alpha1B) [%],inhibition at 10 µM (Histamine H3) [%],further results
"CCN(CCCNC(=O)c1cc2ccccc2[nH]1)CCNC(=O)c1cc(Br)cc(OC)c1OC [21d, N-(3-((2-(5-Bromo-2,3-dimethoxybenzamido)ethyl)(ethyl)amino)propyl)-1H-indole-2-carboxamide]",148 ± 9,< 50,181,92,< 50,> 10,< 50,< 50,0.25,> 10,< 50,N/A (N/A; not active means less than 50% inhibition that was obtained in primary binding assay at 10 µM of the compound),1220,,,,,,Ki (Muscarinic M5): 4.22 µM
"CCN(CCCNC(=O)c1ccc(-c2ccsc2)cc1)CCNC(=O)c1cc(Br)cc(OC)c1OC [21g, 5-Bromo-N-(2-(ethyl(3-(4-(thiophen-3-yl)benzamido)propyl)amino)ethyl)-2,3-dimethoxybenzamide]",312 ± 18,,189,195,,1.63,,,0.61,4.81,< 50,N/A (N/A; not active means less than 50% inhibition that was obtained in primary binding assay at 10 µM of the compound),6,616,< 50,relatively high affinity,,,Ki (Serotonin 5-HT1B): 1060 nM; Ki (Serotonin 5-HT7A): 2250 nM; Ki (Adrenergic beta1): 1890 nM
"CCN(CCCNC(=O)c1ccsc1)CCNC(=O)c1cc(Br)cc(OC)c1OC [21i, N-(3-((2-(5-Bromo-2,3-dimethoxybenzamido)ethyl)(ethyl)amino)propyl)thiophen-e-3-carboxamide]",304 ± 7,< 50,269,29,< 50,,< 50,< 50,0.28,,< 50,N/A (N/A; not active means less than 50% inhibition that was obtained in primary binding assay at 10 µM of the compound),,,< 50,relatively high affinity,< 50,< 50,inhibition at 10 µM ([1]; read-out: Ki (nM) or % inhibition at 10 µM: Benzodiazepine receptor (PBR)): < 50%
"CCN(CCCNC(=O)c1ccc2ccccc2c1)CCNC(=O)c1cc(Br)cc(OC)c1OC [21a, N-(3-((2-(5-Bromo-2,3-dimethoxybenzamido)ethyl)(ethyl)amino)propyl)-2-naphthamide]",169 ± 12,< 50,118,53,< 50,3.94,< 50,< 50,0.19,,< 50,N/A (N/A; not active means less than 50% inhibition that was obtained in primary binding assay at 10 µM of the compound),9,,< 50,relatively high affinity,,< 50,
"CCN(CCCNC(=O)c1cc2ccccc2n1C)CCNC(=O)c1cc(Br)cc(OC)c1OC [21j, N-(3-((2-(5-Bromo-2,3-dimethoxybenzamido)ethyl)(ethyl)amino)propyl)-1-methyl-1H-indole-2-carboxamide]",192 ± 22,< 50,183,246,< 50,,< 50,,0.34,,< 50,N/A (N/A; not active means less than 50% inhibition that was obtained in primary binding assay at 10 µM of the compound),8,> 10000,< 50,,< 50,< 50,
